Entries after “also recorded” stand apart in the source; their conditions may differ.
How the values were obtained:
Assay type in all cases: cell-based, human
hESCs = assay: QPCR analysis of mesoderm subtype markers in differentiating hESCs; settings: for Expression of the lateral plate marker KDR: in the presence of activin A (10 ng/ml), BMP4 0 to 100 ng/ml
Experimental: Human embryonic stem cells (hESCs) were cultured in chemically defined medium (CDM) with activin A (10 ng/mL) and FGF2 (20 ng/mL) to maintain pluripotency (Vallier et al, 2005).
An efficient 36 h protocol to differentiate hESCs into early mesoderm was named FlyB (F, FGF2 at 20 ng/ml; Ly, LY294002 at 10 μM and B, BMP4 at 10 ng/ml). Differentiation of paraxial mesoderm can be induced by removal of BMP4 and blockage of the PI3K pathway (1.5 day FLyB+3.5 days FLy, where F is FGF2 at 5-25 ng/ml and Ly is LY294002 at 5-10 μM). Differentiation of lateral plate mesoderm can be induced by increasing the levels of BMP4 and removal of Ly (1.5 day FLyB+3.5 days FB, where F is FGF2 at 5-25 ng/ml and B is BMP4 at […]).
(§1) Total RNA was extracted with RNeasy Mini kit according to the manufacturer's instructions (QIAGEN). One microgram of RNA was reverse-transcribed with Fermentas Maxima First Strand cDNA Synthesis Kit. Quantitative polymerase chain reaction (QPCR) mixtures were prepared as described (Applied Biosystems SYBR Green PCR Master Mix). QPCR reactions were performed by Applied Biosystems 7500 Fast Real-Time PCR System with technical duplicates and normalized to Porphobilinogen Deaminase (PBGD) in the same run. Error bars on all QPCR graphs represent standard error of mean from three independent biological replicates.
The protocol used is shown schematically in FIG. 1A, depicting the growth factors used and the duration of the treatment. For the first 36 hours, growth factors used were FLyB10 [FGF2 (20 ng/mL), BMP4 (10 ng/mL) and LY294002 (10 μM)] to induce primitive streak). The subsequent 3.5 days of differentiation specifies mesoderm subtypes. FLy [FGF2 (20 ng/mL) and LY294002 (10 μM)] for somitic mesoderm; FB50 [FGF2 (20 ng/mL) and BMP4 (50 ng/mL)] for lateral mesoderm.
QPCR analysis was performed for Brachyury, MEOX1 and FLK1 in hESCs grown according to the protocol depicted in FIG. 1A and harvested at day 5. The BMP4 gradient tested ranged from 0 ng/mL (Nog) to 100 ng/mL (B100). The bars in FIG. 2 represent the absence or presence of activin A (A) added at 10 ng/ml respectively. […] Therefore, absence of activin A promoted mesoderm formation.
We then evaluated the effect of 10 μM LY294002 (Ly) on mesoderm subtype specification. QPCR analysis of LMO2, CD31, PECAM1, NKX2.5, ISL1, MEOX1, TBX6, TCF15 and PAX1 was performed in hESCs grown for 36 h in FLyB10 and then for 3.5 additional days in F or FB50, with (RH bars) or without (LH bars) […]. […] On the other hand, the presence of Ly promoted the expressions of somitic markers—MEOX1 and TBX6. […] Again, the presence of 50 ng/ml BMP4 (B50) inhibited the expression of all paraxial markers and promoted the expression of lateral plate markers.

NE-SMCs [1] = assay: Cell cycle analysis; settings: after 24 h, compared to vehicle control
Text: (§2) To confirm that we had generated origin-specific SMC subtypes, we used cytokines known to induce unique responses in aortic SMCs of distinct origins. Angiotensin II (Ang II) promotes medial hyperplasia in the ascending aorta (neuroectoderm derivative) but not the descending aorta (mesoderm derivative), TGF-β1 also encourages greater cell proliferation in SMCs of neuroectoderm origin compared to those of mesodermal origin. […] Cell cycle analysis confirmed that Ang II, TGF-β1 or serum each increased the proportion of NE-SMCs in S and G2-M phases compared to vehicle control after 24 h (FIGS. 25A and 25B).

derived SMCs [2] = assay: Contraction study; settings: for Percentage of all derived SMCs that contracted: upon carbachol or angiotensin II treatment
Experimental: (§3) On culture dishes, SMCs were loaded with the calcium-sensitive fluorophore, Fluo-4 AM (2.5 μM; Molecular Probes). Cells were typsinised into single-cell suspension for calcium flux measurement using the CyAn ADP flow cytometer (Packman Coulter). Contraction was induced by treating the cells with carbachol (100 μM). Fluo-4 was excited by the 488 nm laser and the fluorescence emission was measured by the FL1 channel. Cells were analysed just before addition of carbachol, 1 minute and 3 minutes after addition. On the other hand, contraction images of adherent SMCs were acquired by an inverted microscope (Olympus) before and after 10 minutes of carbachol treatment.
Over 50% and 20% of all derived SMCs contracted upon carbachol and angiotensin II treatments, respectively.

LM-SMC = assay: Proliferation response by MTT assay; settings: over 3 d; Ang II 1 μM, TGF-β1 5 ng/ml, serum 10%
Text: as §2

PM-SMC = assay: Proliferation response by MTT assay; settings: over 3 d; Ang II 1 μM, TGF-β1 5 ng/ml, serum 10%
Text: as §2

NE-SMC = assay: Proliferation response by MTT assay; settings: over 3 d; Ang II 1 μM, TGF-β1 5 ng/ml, serum 10%
Text: as §2

NE-SMCs [3] = assay: Auto-induction of TGF-β2 and PDGFA (qRT-PCR, western blot)
Experimental: as §1
To obtain protein extracts, cells were washed twice with ice-cold PBS. Ice-cold RIPA buffer was then added to the cells. Cells were scraped off the culture dishes and transferred into a centrifuge tube. Suspension was agitated by an orbital shaker for 15 minutes to lyse the cells at 4° C. Lysate was centrifuged at 14,000 g in a precooled centrifuge for 15 minutes and the supernatant was kept frozen at −80. Protein concentrations were determined using Thermo Scientific BCA Protein Assay Kit. 20 μg total protein was separated by SDS-PAGE and on stacking gel (30% acrylamide, 1M Tris, 10% SDS, 10% APS, TEMED) then transferred to a nitrocellulose membrane. […]

derived SMCs [4] = assay: Calcium flux measurement with Fluo-4; settings: carbachol 100 μM
Experimental: as §3
Changes of calcium signalling in cells are indicative of their contractile properties in response to carbachol, a potent vasoconstrictor. The origin-specific SMCs were loaded with fluo-4, a calcium-sensitive dye, prior to the addition of carbachol (FIG. 13) and fluorescent emission from the fluo-4 measured over time (T) after the addition of carbachol to the origin-specific SMCs. Hela cells were used as negative control.
To assess SMC contractile potential, we initially performed immunostaining for vinculin and phalloidin staining for actin filaments, Well-developed focal adhesion complexes were detected in all three SMC subtypes. The cells were then preloaded with a calcium-sensitive dye, Fluo-4. Carbachol (100 μM) stimulated an increase in Fluo-4 fluorescence intensity in the derived SMCs within 1 min of treatment (FIG. 14), indicating increased intracellular calcium flux. After 2 min of treatment, Fluo-4 intensity decreased, approaching original basal levels by 5 min.

[5] = tested on: hPSC-derived SMCs and rat aortic SMCs; assay: MMP and TIMP expression after IL-1β treatment (qRT-PCR); settings: IL-1β 10 ng/ml
Experimental: as §1
Only NE-SMCs proliferated in response to TGF-β1 (FIGS. 24, 25). TGF-β1 may have enhanced cell proliferation by autocrine production of TGF-β2 and PDGFA. We investigated whether TGF-β1 stimulated greater auto-induction of TGF-β2 and PDGFA in SMCs of a neuroectoderm origin. […] Correspondingly, elevated TGFB2 and PDGFA protein levels were found in NE-SMC lysates after TGF-β1 treatment (FIG. 22). Taken together, the data on requirement for MKL2 and their unique proliferative and secretory responses validate the hypothesis that our different SMC subtypes are analogous to the distinct lineage-dependent SMC populations documented in vivo. […]

[6] = 50 ng/ml BMP4 (B50), 36 h FLyB10 then 3.5 days

O=c1cc(N2CCOCC2)oc2c(-c3ccccc3)cccc12 [LY294002, 2-morpholin-4-yl-8-phenylchromen-4-one, reference compound]
Expression of lateral plate markers LMO2, PECAM1, NKX2-5, ISL1 (hESCs; 10 μM LY294002 in F or FB50, compared to no LY294002): had no effect or inhibited; also recorded: significantly downregulated
Expression of paraxial markers MEOX1, TBX6, TCF15, PAX1 (hESCs; 10 μM LY294002 in the presence of 20 ng/ml FGF2 (F) alone, versus no LY294002): promote paraxial mesoderm patterning; also recorded: significantly promoted

angiotensin II: vasoconstrictor; promotes medial hyperplasia in the ascending aorta (DRVYIHPF; Angiotensin-2; UniProt P01019 25-32, looked up) [reference compound]
Proportion of cells in S and G2-M phases (NE-SMCs [1]): increased
Percentage of all derived SMCs that contracted (derived SMCs [2]): > 20%
Proliferation (LM-SMC): did not
Proliferation (PM-SMC): did not
Proliferation (NE-SMC): proliferated

TGF-β1: homodimeric polypeptide which regulates proliferation and differentiation
Proportion of cells in S and G2-M phases (NE-SMCs [1]): increased
Proliferation (LM-SMC): did not
Proliferation (PM-SMC): did not
Proliferation (NE-SMC): proliferated
TGFB2 and PDGFA expression (NE-SMCs [3]; 10 h of TGF-β1 (5 ng/ml), compared with vehicle control, only in NE-SMCs): significantly upregulated
TGFB2 and PDGFA protein levels in lysates (NE-SMCs [3]; after TGF-β1 treatment, western blot): elevated

C[N+](C)(C)CCOC(N)=O [carbachol]
Change of cell surface area in contracting cells (derived SMCs [2]; 10 min of carbachol treatment, n=20): 10-20%
Percentage of all derived SMCs that contracted (derived SMCs [2]): Over 50%
Fluo-4 fluorescence intensity (intracellular calcium flux) (derived SMCs [4]): transient increase
Time to increase in Fluo-4 fluorescence intensity (derived SMCs [4]): ≤ 1 min
Fluo-4 fluorescence intensity (intracellular calcium flux) (derived SMCs [4]; listed as Carbachol): increase

IL-1β: an atherogenic cytokine
Induction of Mmp9 relative to control in rat SMCs versus hPSC-derived SMCs ([5]; 6 h): ~100 fold
MMP9 and TIMP1 expression levels ([5]; SMC subtypes and rat SMCs of distinct origins): differentially activated

B1: BMP4: Bone Morphogenic Protein 4, TGFβ ligand stimulating SMAD1, SMAD5 and SMAD9 signalling (protein, UniProt P12644 293-408, looked up)
Bone morphogenetic protein 4: SPKHHSQRARKKNKNCRRHSLYVDFSDVGWNDWIVAPPGYQAFYCHGDCPFPLADHLNSTNHAIVQTLVNSVNSSIPKACCVPTELSAISMLYLDEYDKVVLKNYQEMVVEGCGCR
Expression of all paraxial markers (hESCs; [6]): inhibited
Expression of lateral plate markers (hESCs; [6]): promoted
Expression of FLK1 (hESCs; hESCs harvested at day 5, BMP4 0 to 100 ng/mL): increased
Expression of the lateral plate marker KDR (hESCs; day 5): promote the expression

B2: activin A: dimeric polypeptide stimulating the Activin/Nodal pathway (protein, UniProt P08476 311-426, looked up)
Inhibin beta A chain: GLECDGKVNICCKKQFFVSFKDIGWNDWIIAPSGYHANYCEGECPSHIAGTSGSSLSFHSTVINHYRMRGHSPFANLKSCCVPTKLRPMSMLYYDDGQNIIKKDIQNMIVEECGCS
modifications: Inhibin beta A chain
Expression of Brachyury (T), MEOX1 and FLK1 (hESCs; absence versus presence of activin A at 10 ng/ml, day 5): upregulated
Requirement for mesoderm patterning (hESCs; hESCs harvested at day 5): not required

B3: Noggin: a BMP antagonist (protein, UniProt Q13253 28-232, looked up)
Noggin: QHYLHIRPAPSDNLPLVDLIEHPDPIFDPKEKDLNETLLRSLLGGHYDPGFMATSPPEDRPGGGGGAAGGAEDLAELDQLLRQRPSGAMPSEIKGLEFSEGLAQGKKQRLSKKLRRKLQMWLWSQTFCPVLYAWNDLGSRFWPRYVKVGSCFSKRSCSVPEGMVCKPSKSVHLTVLRWRCQRRGGQRCGWIPIQYPIISECKCSC
Expression of the lateral plate marker KDR (hESCs; day 5): same effect as B0

From US9238795B2, “Populations of smooth muscle cells of specific embryonic lineages” (Cambridge Enterprise Limited, priority 2011, dated 2016)
